# In patent US20090227533A1, “miR-34 Regulated Genes and Pathways as Targets for Therapeutic Intervention” (priority 2007, published 2009):
# Experiments:
# Jurkat = details: cited from earlier work
# H226 lung cancer cells = assay: Long-term growth curve with repeated electroporation; format: cell-based, human; details: day 31, relative to control cells (100%)
# Protocol: To evaluate the therapeutic activity of hsa-miR-34a over an extended period of time, the inventors conducted growth curve experiments in the presence of miRNA for up to 31 days in H226 lung cancer cells. Since in vitro transfections of naked interfering RNAs, such as synthetic miRNA, are transient by nature and compromised by the dilution of the oligo during ongoing cell divisions, miRNA was administered at multiple time points (Bartlett et al., 2006; Bartlett et al., 2007). To accommodate miRNA delivery into a large quantity of cells, hsa-miR-34a or negative control miRNA were delivered by the electroporation method. Briefly, 1×10^6H226 were electroporated in triplicate with 1.6 μM hsa-miR-34a or negative control using the BioRad Gene Pulser Xcell™ instrument (BioRad Laboratories Inc., Hercules, Calif., USA), seeded and propagated in regular growth medium. When the control cells reached confluence (days 6, 17 and 25), cells were harvested, counted and electroporated again with the respective miRNAs. […] The population doubling was calculated from these electroporation events using the formula PD=ln(Nf/N0)/ln 2 and adjusting for the fact that approximately 72% of newly seeded cells adhere to the plate. […]
# lung cancer cells (A549) = details: cited from earlier work
# [1] = test system: cervical cancer cells (HeLa); details: cited from earlier work
# [2] = test system: prostate cancer cells (22Rv1); details: cited from earlier work
# [3] = test system: PPC-1 prostate cancer cells; assay: Long-term growth curve with repeated electroporation; format: cell-based, human; details: by day 22; 1.6 μM electroporated repeatedly
# Protocol: (§1) To evaluate the therapeutic activity of hsa-miR-34a over an extended period of time, we conducted growth curve experiments in the presence of miRNA for up to 22 days. Since in vitro transfections of naked interfering RNAs, such as synthetic miRNA, are transient by nature and compromised by the dilution of the oligo during ongoing cell divisions, miRNA was administered at multiple time points (Bartlett et al. 2006; Bartlett et al. 2007). To accommodate miRNA delivery into a large quantity of cells, the inventors employed the electroporation method to deliver hsa-miR-34a or negative control miRNA into PPC-1, PC3, and Du145 human prostate cancer cells. Briefly, 1×10^6 PPC-1 or PC3 cells, or 0.5×10^6 Du145 cells were electroporated with 1.6 μM hsa-miR-34a or negative control using the BioRad Gene Pulser Xcell™ instrument (BioRad Laboratories Inc., Hercules, Calif., USA), seeded and propagated in regular growth medium. Experiments with PC3 and Du145 cells were carried out in triplicates. When the control cells reached confluence (days 4 and 11 for PPC-1; days 7 and 14 for PC3 and Du145), cells were harvested, counted and electroporated again with the respective miRNAs. To ensure similar treatment of both conditions as well as to accommodate exponential growth, the cell numbers used for the second and third electroporation were titrated down to the lowest count. The population doubling was calculated from these electroporation events using the formula PD=ln(Nf/N0)/ln 2 and adjusting for the fact that approximately 72% of newly seeded cells adhere to the plate. Cell counts were extrapolated and plotted on a linear scale (FIG. 6). Arrows represent electroporation days. Standard deviations are included in the graphs.
# [4] = test system: Du145 prostate cancer cells; assay: as above; format: cell-based, human
# Protocol: as §1
# [5] = test system: PC3 prostate cancer cells; assay: as above; format: cell-based, human
# Protocol: as §1
substance,measurement,setting,value
"hsa-miR-34a: synthetic miRNA; mature sequence UGGCAGUGUCUUAGCUGGUUGUU (MIMAT0000255; SEQ ID NO:1) (synthetic miRNA, chemistry not given here)",programmed cell death (apoptosis),Jurkat,increased
same,inhibition of H226 cell growth,"H226 lung cancer cells; 1.6 μM electroporated on days 0, 6, 17, 25",94.9%
same,remaining cells,H226 lung cancer cells,5.1%
same,proliferation,lung cancer cells (A549),inhibits the proliferation
same,proliferation,[1],inhibits the proliferation
same,proliferation,[2],inhibits the proliferation
same,fate of PPC-1 cells in long-term culture,[3],eliminated
same,cells relative to cells electroporated with negative control miRNA,"[4]; Du145, day 19",6.9%
same,inhibition of Du145 cell growth,"[4]; day 19, 1.6 μM electroporated repeatedly, relative to control cells (100%)",93.1%
same,cells relative to cells electroporated with negative control miRNA,"[5]; PC3, day 21",2.8%
same,inhibition of PC3 cell growth,"[5]; day 21, 1.6 μM electroporated repeatedly, relative to control cells (100%)",97.2%
